Counter-ions that a name gives are not always drawn. Each block holds one compound with its values, some of them ahead of it.
Legend:
[1] = tested on: heart rate response to isoproterenol; assay: Duration of beta-blockade in vivo, anesthetized dogs, 40-minute infusion; set-up: species or system dog; conditions: for Recovery Times 50%: 50% recovery of heart rate after 40-minute infusion; for Recovery Times 50% / Recovery Times 80% / Recovery Times 100%: normalized to 50% inhibition, dog; for Recovery Times 80%: 80% recovery of heart rate after 40-minute infusion; for Recovery Times 100%: 100% recovery of heart rate after 40-minute infusion; for ED50: Canis lupus familiaris, iv, 40 min, read-out: Potency
Description: (§1) The duration of beta-blockade was determined in vivo using pentobarbitalanesthetized dogs instrumented for measurement of heart rate using a Beckman® cardiotachometer triggered electronically by a phasic aortic blood pressure signal. Both vagus nerves were severed in the cervical region and the animals were mechanically ventilated. Two experimental designs were used. The first employed a 40-minute infusion of test compound and the second used a 3-hour infusion of test compound. In the 40-minute model, isoproterenol was infused into a foreleg vein at the rate of 0.5 μg/kg/min to induce a beta-receptor mediated tachycardia. Various doses of test compound where then infused into a femoral vein over a period of 40 minutes. This infusion was then terminated and recovery from blockade was quantitated. […] This cumulative dose is expressed as mg/kg and is an indication of potency. The time period required for 80% recovery of heart rate for each dose of test drug was also measured to quantitate duration of action. […] Test compounds were dissolved in 0.9% NaCl and infused at a rate of 0.05 ml/kg/min or less. In the 3-hour infusion model, bolus doses of isoproterenol (0.5 μg/kg) were used to assess the degree of beta-blockade and recovery from beta-blockade after termination of the infusion. The doses were spaced at 10-minute intervals and were given before, during and following the infusion of test compounds. The infusion rate was adjusted so that at the end of the 3-hour infusion period the degree of isoproterenol inhibition averaged about 50% of control.

[2] = tested on: heart rate response to isoproterenol; assay: Duration of beta-blockade in vivo, anesthetized dogs, 3-hour infusion; conditions: dog; for 80% Recovery Time: after termination of 3-hour infusion; for % I (Percent inhibition of heart rate response to isoproterenol): end of 3-hour infusion, bolus isoproterenol 0.5 μg/kg
Description: as §1

[3] = biological target: T1, β-adrenergic receptors (guinea pig tracheal strips) (Cavia porcellus, UniProt Q8K4Z4); assay: β-blocking activity in vitro, guinea pig tracheal strips (tension response to isoproterenol); format: cell-based; conditions: vs isoproterenol, 60 minute incubation, 37° C., read-out: pA2 Trachea (converted)
T1 construct: from tissue; host or cells: guinea pig trachea (isolated spiral strips)
Description: (§2) Each tissue was suspended between a fixed glass rod and a Statham® Universal Transducer connected to a Beckman® recorder. Atria were allowed to beat spontaneously under a loading tension of approximately 0.5 gm. Instrinsic depressant or stimulant activity was determined for each compound by progressively increasing concentrations in the tissue baths at 60-minute intervals. Tissues were not washed between increments. The maximum concentration showing little or no cardiodepressant activity was chosen for blockade experiments. Changes in rate in response to isoproterenol were measured in the absence and presence of test compounds. Spiral strips of guinea pig trachea were suspended under 5 gm resting tension and incubated with phentolamine, tropolone and cocaine. Active tension was generated by addition of carbachol (3.0×10^-7 M) and decreases in tension in response to isoproterenol were quantitated. Cumulative concentration-response curves were produced with isoproterenol both before and after 60 minute incubation of test compounds with atria and trachea. The blocking potency of test compounds was estimated by computing pA2 values (-log […]) by the method of Furchgott, The Pharmacological Differentiation of Adrenergic Receptors, Ann. […] The degree of cardioselectivity was estimated from the ratio, KB trachea/KB atria (10^(pA.sbsp.2^atria-pA.sbsp.2^trachea)). A ratio greater than one indicates cardioselectivity. Test drugs were dissolved in distilled water and added to the bath (30 ml) in a volume of 10 or 100 μl.

[4] = biological target: T2, β-adrenergic receptors (guinea pig right atria) (Cavia porcellus, UniProt H0W3H1); assay: β-blocking activity in vitro, guinea pig right atria (rate response to isoproterenol); format: cell-based; conditions: vs isoproterenol, guinea pig right atria, 60 minute incubation, 37° C.; for Kb: read-out: pA2 Atria (converted)
T2 construct: Atria were allowed to beat spontaneously under a loading tension; from tissue; host or cells: guinea pig right atria (isolated, spontaneously beating)
Description: as §2

T1 sequence (Q8K4Z4 whole entry): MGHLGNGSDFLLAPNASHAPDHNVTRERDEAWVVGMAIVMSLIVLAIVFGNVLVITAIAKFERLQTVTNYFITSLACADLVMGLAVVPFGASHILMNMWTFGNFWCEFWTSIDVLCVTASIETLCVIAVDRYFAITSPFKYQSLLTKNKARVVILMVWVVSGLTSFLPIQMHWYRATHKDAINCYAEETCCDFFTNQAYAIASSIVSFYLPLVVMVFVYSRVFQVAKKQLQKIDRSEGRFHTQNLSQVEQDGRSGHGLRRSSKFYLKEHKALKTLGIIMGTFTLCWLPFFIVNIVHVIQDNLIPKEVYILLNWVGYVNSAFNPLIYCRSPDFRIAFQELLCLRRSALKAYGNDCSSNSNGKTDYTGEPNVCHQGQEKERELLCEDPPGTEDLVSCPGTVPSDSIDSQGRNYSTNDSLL
T2 sequence (H0W3H1 1-470): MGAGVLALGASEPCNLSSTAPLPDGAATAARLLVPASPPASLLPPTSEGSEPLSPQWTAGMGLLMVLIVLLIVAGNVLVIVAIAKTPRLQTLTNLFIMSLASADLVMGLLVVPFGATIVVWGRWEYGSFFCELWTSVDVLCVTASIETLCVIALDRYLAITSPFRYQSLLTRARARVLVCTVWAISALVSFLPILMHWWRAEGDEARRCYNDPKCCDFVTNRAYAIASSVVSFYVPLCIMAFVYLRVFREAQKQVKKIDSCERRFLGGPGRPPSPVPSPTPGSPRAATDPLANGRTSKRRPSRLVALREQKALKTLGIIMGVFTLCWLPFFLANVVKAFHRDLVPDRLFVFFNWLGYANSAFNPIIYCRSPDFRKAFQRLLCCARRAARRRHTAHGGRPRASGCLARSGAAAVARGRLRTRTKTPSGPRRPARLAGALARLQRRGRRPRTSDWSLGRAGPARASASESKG

- Kb [3]: 63.1 nM
- Kb [4]: 158 nM
Compound: CC(C)NCC(O)COC(=O)c1ccc(O)cc1 (centres unmarked) [LVI]
- % I (Percent inhibition of heart rate response to isoproterenol) [2]: 79 ± 9%

- Kb [4]: 1260 nM
Compound: CCCNCC(O)COC(=O)c1ccc(N)cc1 (centres unmarked) [LXV, [2-Hydroxy-3-(n-propyl)amino]propyl 4-aminobenzoate oxalate]

- Kb [4]: > 3160 nM
Compound: COc1ccc(CCNCC(O)COC(=O)c2ccc(CO)cc2)cc1OC (centres unmarked) [LXVI, [2-Hydroxy-3-[(N3,4-dimethoxyphenethyl)amino]propyl 4-(hydroxymethyl) benzoate oxalate]

- Kb [3]: 251 nM
- Kb [4]: 398 nM
Compound: CC(C)NCC(O)COC(=O)c1ccc2ccccc2c1 (centres unmarked) [XVI]

- Kb [3]: 100 nM
- Kb [4]: 251 nM
Compound: CC(C)NCC(O)COC(=O)c1cccc2ccccc12 (centres unmarked) [XV]
- Recovery Times 50% [1]: 18 min
- Recovery Times 80% [1]: 22 min
- Recovery Times 100% [1]: 38 min
- ED50 [1]: 1.5 mg/kg
- 80% Recovery Time [2]: > 60 min
- % I (Percent inhibition of heart rate response to isoproterenol) [2]: 54%

- Kb [4]: 251 nM
Compound: CCCOc1ccccc1C(=O)OCC(O)CNC(C)C (centres unmarked) [XXVII]
- 80% Recovery Time [2]: > 60 min
- % I (Percent inhibition of heart rate response to isoproterenol) [2]: 69%

- Kb [4]: > 1000 nM
Compound: CC(C)NCC(O)COC(=O)c1ccc(OCc2ccccc2)cc1 (centres unmarked) [XXX]

Continued, compound first:

Compound: COc1ccc(CCNCC(O)COC(=O)c2cccc(C)c2)cc1OC (centres unmarked) [Example IX]
- Recovery Times 50% [1]: 6 ± 1 min
- Recovery Times 80% [1]: 10 ± 1 min
- Recovery Times 100% [1]: 16 ± 2 min
- ED50 [1]: 4.7 ± 1.7 mg/kg

Compound: CC(C)NCC(O)COC(=O)c1ccc(N)cc1 (centres unmarked) [Example LIV, [2-Hydroxy-3-(isopropylamino)]propyl 4-aminobenzoate hydrochloride]
- 80% Recovery Time [2]: > 60 min
- % I (Percent inhibition of heart rate response to isoproterenol) [2]: 80 ± 4%

Compound: CC(C)NCC(O)COC(=O)c1cccc(N)c1 (centres unmarked) [Example LV]
- Kb [3]: 158 nM
- Kb [4]: 398 nM

Compound: CC(C)NCC(O)COC(=O)c1ccc(CO)cc1 (centres unmarked) [Example LXIV, [2-Hydroxy-3(isopropylamino)]propyl 4-(hydroxymethyl)benzoate hydrochloride]
- Kb [3]: 501 nM

Compound: COc1ccccc1COC(=O)C(O)CNCCc1ccc(OC)c(OC)c1 (centres unmarked) [Example V, 2-Methoxybenzyl 3-[[N-(3,4-Dimethoxyphenethyl)]amino]-2-hydroxypropionate]
- Potency ([1]; cumulative dose over 40-minute infusion, normalized to 50% inhibition of isoproterenol response, dog i.v.): low
- Kb [3]: 10000 nM
- pA2 Atria [4]: inactive

Compound: Cc1cccc(C(=O)OCC(O)CNC(C)C)c1 (centres unmarked) [Example VIII]
- Recovery Times 50% [1]: 7 ± 1 min
- Recovery Times 80% [1]: 14 ± 3 min
- Recovery Times 100% [1]: 20 ± 4 min
- ED50 [1]: 1.83 ± 0.11 mg/kg
- Kb [3]: 50.1 nM
- Kb [4]: 158 nM

Compound: CC(C)NCC(O)COC(=O)c1cccc([N+](=O)[O-])c1 (centres unmarked) [Example XXI]
- Kb [3]: 63.1 nM
- Kb [4]: 158 nM

Compound: COc1ccc(CCNCC(O)C(=O)Oc2ccccc2C)cc1OC (centres unmarked) [II]
- Kb [4]: 1260 nM

Compound: CCC(C)(C)NCC(O)COC(=O)c1ccccc1F (centres unmarked) [LIII]
- Kb [4]: 158 nM

Compound: CC(C)NCC(O)COc1cccc2ccccc12 (centres unmarked) [Propranolol, reference compound]
- Recovery Times 50% [1]: 23 ± 4 min
- Recovery Times 80% [1]: 42 ± 8 min
- Recovery Times 100% [1]: 58 ± 9 min
- 80% Recovery Time [2]: > 60 min

Compound: COc1ccc(CCNCC(O)COC(=O)c2ccccc2C)cc1OC (centres unmarked) [XXXI]
- 80% Recovery Time [2]: > 60 min
- % I (Percent inhibition of heart rate response to isoproterenol) [2]: 85%

From patent US4405642A, “Method for treatment or prophylaxis of cardiac disorders” (American Hospital Supply Corporation, priority 1980, dated 1983)
